{
  "source": "patent US20050090518A1",
  "about": "(Nastech Pharmaceutical Company Inc., priority 2003, published 2005)",
  "origin": "cited, not measured here",
  "details": "intranasal administration",
  "data": [
    {"smiles": "CN1CCc2cccc3c2[C@H]1Cc1ccc(O)c(O)c1-3", "note": "[Apomorphine]", "values": [
      {"measurement": "abolition of \"off state\" events", "result": 95, "unit": "%"},
      {"measurement": "duration of efficacy", "result": "less than one"},
      {"measurement": "onset of action", "result": 10, "unit": "min"}
    ]}
  ]
}
